This experiment addresses GST-tagged truncated human mutant G2019S LRRK2 (Homo sapiens, UniProt Q5S007, G2019S). Nature of the experiment: LRRK2 G2019S Km ATP LanthaScreen assay. Particulars: 134 μM ATP (Km ATP), LRRKtide substrate, mean IC50 values; read-out: LRRK2 pIC50 (converted). Format: biochemical. Put shortly: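 LanthaScreen TR-FRET read with fluorescein-LRRKtide and 134 μM ATP (Km) in Tris pH 8.5/10 mM MgCl2 buffer. The enzyme was preincubated 15 min with compound at room temperature, and the reaction ran 90 min at ambient temperature. Stopped with EDTA plus Tb anti-phospho-LRRKtide antibody; the 520/495 nm ratio gave a 4-parameter logistic IC50, mean of several runs.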
(TR-FRET usually uses a lanthanide donor and a delayed reading to cut background.)
In the case of `Clc1cc2cnc(Nc3cnn(C4CC4)c3Cl)nc2cc1N1CCn2cnnc2C1` [Ex-1.26, 6-chloro-N-(5-chloro-1-cyclopropyl-1H-pyrazol-4-yl)-7-(5,6-dihydro[1,2,4]triazolo[4,3-a]pyrazin-7(8H)-yl)quinazolin-2-amine], the IC50 is 1.49 nM.

Consider `Cn1cc(Nc2ncc3ccc(N4C(=O)C5CCC4C5)cc3n2)c(C(F)(F)F)n1` (stereo not shown) [Ex-7.9, 2-(2-{[1-methyl-3-(trifluoromethyl)-1H-pyrazol-4-yl]amino}quinazolin-7-yl)-2-azabicyclo[2.2.1]heptan-3-one], for which the IC50 was 34 nM.

Consider `F[C@H]1CN(C2COC2)CC[C@@H]1n1ncc(Nc2ncc3cc(Cl)c(N4CCC5(CC4)COC5)cc3n2)c1Cl` [Ex-1.4, 6-chloro-N-{5-chloro-1-[(3S,4S)-3-fluoro-1-(oxetan-3-yl)piperidin-4-yl]-1H-pyrazol-4-yl}-7-(2-oxa-7-azaspiro[3.5]nonan-7-yl)quinazolin-2-amine], for which the IC50 was 1.54 nM.

Regarding `Cc1c(Nc2ncc3cc(Cl)c(N4CCN(C5(C)COC5)CC4)cc3n2)cnn1CCF` [Ex-4.12, 6-chloro-N-[1-(2-fluoroethyl)-5-methyl-1H-pyrazol-4-yl]-7-[4-(3-methyloxetan-3-yl)piperazin-1-yl]quinazolin-2-amine], the IC50 was 0.625 nM.

Take `Cc1c(Nc2ncc3cc(Cl)c(N4CCN(C)C(C)(C)C4)cc3n2)cnn1CC(F)F` [Ex-1.3]: the IC50 is 180 nM.

With `Cc1c(Nc2ncc3ccc(N4C(=O)OC[C@@H]4C)cc3n2)cnn1C1CCOCC1` [Ex-1.48, (4S)-4-methyl-3-(2-{[5-methyl-1-(oxan-4-yl)-1H-pyrazol-4-yl]amino}quinazolin-7-yl)-1,3-oxazolidin-2-one], the IC50 was 0.625 nM.

Consider `CC1(O)CCN(c2cc3nc(Nc4cnn(CC(F)F)c4Cl)ncc3cc2Cl)C1` (stereo not shown) [Ex-1.14, 1-(6-chloro-2-{[5-chloro-1-(2,2-difluoroethyl)-1H-pyrazol-4-yl]amino}quinazolin-7-yl)-3-methylpyrrolidin-3-ol], for which the IC50 was 4.71 nM.

With `OC1CCN(c2cc3nc(Nc4cnn(C5CC5)c4Cl)ncc3cc2Cl)CC1` [Ex-3.8, 1-{6-chloro-2-[(5-chloro-1-cyclopropyl-1H-pyrazol-4-yl)amino]quinazolin-7-yl}piperidin-4-ol], the IC50 was 2.53 nM.

Turning to `CC1(N2CCN(c3cc4nc(Nc5cnn(C6CC(F)C6)c5Cl)ncc4cc3Cl)CC2)COC1` (stereo not shown) [Ex-3.21, 6-chloro-N-[5-chloro-1-(3-fluorocyclobutyl)-1H-pyrazol-4-yl]-7-[4-(3-methyloxetan-3-yl)piperazin-1-yl]quinazolin-2-amine], the IC50 was 4.01 nM.

As for `Cn1ncc(Nc2ncc3cc(Cl)c(N4CCN(C5(C)COCC5O)CC4)cc3n2)c1Cl` (single isomer, unassigned) [Ex-6.28, (3S,4S) or (3R,4R) 4-(4-{6-chloro-2-[(5-chloro-1-methyl-1H-pyrazol-4-yl)amino]quinazolin-7-yl}piperazin-1-yl)-4-methyloxolan-3-ol], the IC50 was 0.381 nM.

Consider `Cc1c(Nc2cc3cc(N4CCN([C@]5(C)COC[C@@H]5O)CC4)c(Cl)cc3cn2)cnn1C1CC1` (single isomer, unassigned) [Ex-1.2, (3R,4R) or (3S,4S) 4-(4-(7-chloro-3-((1-cyclopropyl-5-methyl-1H-pyrazol-4-yl)amino)isoquinolin-6-yl)piperazin-1-yl)-4-methyltetrahydrofuran-3-ol], for which the IC50 was 8.41 nM.

On to `Cc1c(Nc2ncc3cc(Cl)c(N4CCN(C5(C)COCC5O)CC4)cc3n2)cnn1C1CC1(F)F` (single isomer, unassigned) [Ex-6.38, (3S,4S) or (3R,4R) 4-[4-(6-chloro-2-{[1-(2,2-(R) or (S)difluorocyclopropyl)-5-methyl-1H-pyrazol-4-yl]amino}quinazolin-7-yl)piperazin-1-yl]-4-methyloxolan-3-ol], for which the IC50 was 0.835 nM.

In the case of `CC(C)(O)Cn1cc(Nc2ncc3cc(Cl)c(N4CCN(C5(C)COC5)CC4)cc3n2)cn1` [Ex-4.59, 1-[4-({6-chloro-7-[4-(3-methyloxetan-3-yl)piperazin-1-yl]quinazolin-2-yl}amino)-1H-pyrazol-1-yl]-2-methylpropan-2-ol], the IC50 was 5.26 nM.

On to `Cc1nsc(Nc2ncc3ccc(N4C(=O)C5CCC4C5)cc3n2)c1C` (stereo not shown) [Ex-8.15, 2-{2-[(3,4-dimethyl-1,2-thiazol-5-yl)amino]quinazolin-7-yl}-2-azabicyclo[2.2.1]heptan-3-one], for which the IC50 was 2.59 nM.

In the case of `Cc1c(Nc2ncc3cc(Cl)c(N4CCN(C5COCC5O)CC4)cc3n2)cnn1C(F)F` (single isomer, unassigned) [Ex-13.6, (3S,4S) or (3R,4R)-4-(4-(6-chloro-2-((1-(difluoromethyl)-5-methyl-1H-pyrazol-4-yl)amino)quinazolin-7-yl)piperazin-1-yl)tetrahydrofuran-3-ol], the IC50 is 0.668 nM.

As for `Cc1cc2cnc(Nc3cnn(C4CC4)c3Cl)nc2cc1N1CCN(C2(C)COCC2O)CC1` (single isomer, unassigned) [Ex-5.6, (3S,4S) or (3R,4R) 4-(4-(2-((5-chloro-1-cyclopropyl-1H-pyrazol-4-yl)amino)-6-methylquinazolin-7-yl)piperazin-1-yl)-4-methyltetrahydrofuran-3-ol], the IC50 is 0.403 nM.

Regarding `CC1(N2CCN(c3cc4nc(Nc5cnn(CC6CC6(F)F)c5)ncc4cc3Cl)CC2)COC1` (stereo not shown) [Ex-4.70, 6-chloro-N-{1-[(2,2-difluorocyclopropyl)methyl]-1H-pyrazol-4-yl}-7-[4-(3-methyloxetan-3-yl)piperazin-1-yl]quinazolin-2-amine], the IC50 was 4.93 nM.

`Cc1c(Nc2cc3cc(N4CCN([C@]5(C)COC[C@@H]5O)CC4)c(Cl)cc3cn2)cnn1C1CC1` (single isomer, unassigned) [Ex-1.1, (3R,4R) or (3S,4S) 4-(4-(7-chloro-3-((1-cyclopropyl-5-methyl-1H-pyrazol-4-yl)amino)isoquinolin-6-yl)piperazin-1-yl)-4-methyltetrahydrofuran-3-ol]: the IC50 was 0.716 nM.

Regarding `OC1C2CC1CN(c1cc3nc(Nc4cnn(C5CC5)c4Cl)ncc3cc1Cl)C2` (stereo not shown) [Ex-1.35, 3-{6-chloro-2-[(5-chloro-1-cyclopropyl-1H-pyrazol-4-yl)amino]quinazolin-7-yl}-3-azabicyclo[3.1.1]heptan-6-ol], the IC50 was 3.48 nM.

`CO[C@H]1C[C@H](n2ncc(Nc3ncc4cc(Cl)c(N5CCC(C)(O)CC5)cc4n3)c2C)C1` [Ex-6.13, 1-(6-chloro-2-{[1-(trans-3-methoxycyclobutyl)-5-methyl-1H-pyrazol-4-yl]amino}quinazolin-7-yl)-4-methylpiperidin-4-ol]: the IC50 was 0.976 nM.

Consider `CC1(N2CCN(c3cc4nc(Nc5cnn(C6CC6(F)F)c5Cl)ncc4cc3Cl)CC2)COC1` (single isomer, unassigned) [Ex-4.61, 6-chloro-N-[5-chloro-1-(2,2-(R) or (S)difluorocyclopropyl)-1H-pyrazol-4-yl]-7-[4-(3-methyloxetan-3-yl)piperazin-1-yl]quinazolin-2-amine], for which the IC50 is 7.3 nM.

`Cc1cc2cnc(Nc3cnn(C4CC4(F)F)c3Cl)nc2cc1N1CCN(C2(C)COCC2O)CC1` (single isomer, unassigned) [Ex-5.5, (3S,4S) or (3R,4R) 4-(4-(2-((5-chloro-1-(2,2-(R) or (S)difluorocyclopropyl)-1H-pyrazol-4-yl)amino)-6-methylquinazolin-7-yl)piperazin-1-yl)-4-methyltetrahydrofuran-3-ol]: the IC50 was 0.42 nM.

Values taken from patent publication US20230303540A1 (Merck Sharp & Dohme LLC, priority 2020, published 2023).
